Consider 2 compounds from patent publication US9725490B2, “ERAP1-derived peptide and use thereof” (TOKUSHIMA UNIVERSITY, priority 2011, dated 2017).

Experiment [1] has as its target T1, binding of Flag-ERAP1 and His-PHB2/REA (Homo sapiens, UniProt Q99623).
T1 construct: human PHB2 (residues 77-244); thioredoxin (TrxA) (N); TEV protease cut site (N); made in house; host or cells: PHB2: Escherichia coli BL21 star (DE3); Flag-ERAP1: lysate of transiently transfected COS-7 cells
Briefly: Ni-resin pull-down and Western of His-PHB2/REA with Flag-ERAP1 cell lysate. Particulars: pull-down, each concentration. On the procedure: FIG. 2 is a diagram illustrating the results of immunoblotting analysis by which binding of the ERAP1-peptide to PHB2 was evaluated. The cell lysate of the COS-7 cells temporarily transfected with the Flag-tagged ERAP1 plasmid was incubated for 1 hour together with 6×His-tagged recombinant PHB2 protein (10 μg) and the ERAP1-peptide, the ERAP1-scramble peptide, or the ERAP1-mutant peptide in each concentration shown in the figure. Then, His-PHB2 was subjected to pull-down with Ni-NTA agarose (Ni-resin).
The partial sequence of human PHB2 (residues 77-244) was cloned into NcoI and XhoI sites of pTAT6 expression vector (see gift by Dr. Marko Hyvonen, University of Cambridge.: Peranen J, et al., (1996). Anal Biochem. 236, 371-373.) so as to become inframe with the hexahistidine tag, thioredoxin (TrxA) and TEV protease cut site (TEV site) at the amino terminal. The recombinant protein was expressed in Escherichia coli BL21 star (DE3) cell line (Invitrogen, Carlsbad, Calif.), and purified using Hi-Trap Kit (GE Healthcare). Finally, the recombinant protein was purified according to the protocol of the supplier using superdex 200 gel filtration column (GE Healthcare) with high performance liquid chromatography (HPLC). […]

Experiment [2] relates to PHB2/REA localization in MCF-7 cells. Briefly: Nuclear translocation of PHB2/REA (fractionation, immunoblotting, immunostaining). The format is cell-based, human. As to conditions: 1 hour to 24 hours after administration. On the procedure:
FIG. 3-1 is a diagram illustrating that ERAP1-peptide treatment promotes nuclear translocation of PHB2. […] MCF-7 cells were stimulated for 24 hours with 10 μM ERAP1-peptide and/or 10 nM E2. The cells were fractioned into mitochondria, cytoplasm, and nuclear fractions by specific gravity centrifugation. Then, each fraction was subjected to immunoblotting analysis using an anti-ERAP1 antibody and an anti-PHB2 antibody. PRDX3, α/β-Tublin (Tublin) and lamin B are markers for mitochondria, cytoplasm, and nuclear fractions, respectively (upper panel). The protein content of each fraction was evaluated with Coomassie-stained SDS-PAGE gel (lower panel). […] KPL-3C cells were treated for 24 hours with 10 μM HA-tagged ERAP1-peptide and/or 10 nM E2. Then, the cells were fractionated into cytoplasm and nuclear fractions by specific gravity centrifugation. Then, which fraction was immunoprecipitated with anti-ERα antibody, an anti-ERAP1 antibody or an anti-PHB2 antibody. Then, immunoblotting was performed with each antibody shown in the figure (an anti-ERAP1 antibody, an anti-ERα antibody, an anti-PHB2 antibody and an anti-HA antibody (Peptide)). α/β-Tubulin (Tubulin) and Lamin B are markers for cytoplasm and nuclear fractions, respectively.
FIG. 4-1 is a diagram illustrating that the ERAP1-peptide promotes nuclear translocation of PHB2. (A) The upper panel illustrates representative images of stained immune cells, showing the intracellular localization of PHB2. MCF-7 cells were treated with 10 μM ERAP1-peptide or ERAP1-scramble peptide. Subsequently, the cells were treated with 10 nM E2. After the immobilization, the cells were subjected to immunofluorescent staining using an anti-PHB2 antibody and DAPI (for discriminating the nucleus).
FIG. 4-2 is a diagram illustrating that the ERAP1-peptide promotes nuclear translocation of PHB2. (B) is a diagram illustrating the results of immunoblotting analysis by which the intracellular localization of PHB2 was detected, MCF-7 cells were treated with the ERAP1-peptide or the ERAP1-scramble peptide. Subsequently immediately, the cells were treated with 10 nM E2. The cells were fractionated into cytoplasm and nuclear fractions after 1 hour or 24 hours. Each fraction was immunoprecipitated with anti-ERα antibody, an anti-ERAP1 antibody or a PH82 antibody. […]
MCF-7 cells were seeded in an 8-well chamber (Laboratory-Tek II Chamber Slide System, Nalgen Nunc International, Naperville, Ill., USA) in 5×10^4 cells/well, and cultured under estrogen-free condition for 24 hours. […] The fluorescence image was obtained under Olympus IX71 microscope (Tokyo, Japan). […]
A general note: Immunoblotting shows a protein as a band on a membrane.

For experiment [3], the system named is transcriptional activity of ERα (ERE). Briefly: ERE-luciferase reporter assay in MCF-7 cells. It counts as cell-based, human. Particulars: 10 nM E2 24 hours. On the procedure:
FIG. 3-2 is a diagram illustrating promotion effect of PHB2 nuclear translocation and suppression effect of the transcriptional activation of ER by ERAP1-peptide treatment. (C) illustrates representative images of stained immune cells, showing the localization of the ERAP1-peptide (HA-tagged ERAP1-peptide) and PHB2. MCF-7 cells were treated with 10 μM HA-tagged ERAP1-peptide for 24 hours in the presence or in the absence of 10 nM E2. After the immobilization, the cells were subjected to immunonfluorescent staining using an anti-HA antibody, an anti-PHB2 antibody and DAPI (for discriminating the nucleus). The arrow indicates the nuclear-translocated ERAP1-peptide. […] Then, immediately, the cells were stimulated with 10 nM E2 for 24 hours. TAM indicates the tamoxifen treatment.
FIG. 3-3 is as diagram illustrating the results of the luciferase assay by which the inhibition effect of the ERAP1-peptide was evaluated. MCF-7 cells temporarily transfected with an ERE-luciferase reporter vector (F) or an AP-1-luciferase reporter vector (F) were treated with the ERAP1-peptide, the scramble peptide or the mutant peptide in the concentrations shown in the […]. Then, immediately, the cells were stimulated with 10 nM E2 for 24 hours. TAM indicates the tamoxifen treatment.
FIG. 4-3 is a diagram illustrating that the ERAP1-peptide promotes nuclear translocation of PHB2. (C) and (D) are figures that show the results of the luciferase assay by which the inhibition effect of the ERAP1-peptide on the ERα transcriptional activity was evaluated. MCF-7 cells temporarily transfected with an ERE-luciferase reporter vector (C) or an AP-1-luciferase reporter vector (D) were treated with the ERAP1-peptide in the concentrations shown in the figure or 10 nM tamoxifen. Then, immediately, the cells were stimulated with 10 nM E2 thr 24 hours.
For ERE reporter assay, MCF-7 cells were transfected with ERE reporter (SABiosciences, Frederick, Md., USA) in accordance with the instruction of the manufacturer. For AP-1 reporter assay, MCF-7 cells were transfected with AP-1 reporter (mouse IL-11 promoter comprising two tandem AP-1 sites subcloned into PGL2-basic vector), c-fos, c-Jun and pRL-TK as an internal standard. After 16 hours from the transfection, the culture medium was exchanged with an assay culture medium (Opti-MEM, 10% FBS, 0.1 mM NEAA, 0.1 mM Sodium pyruvate and 10 μg/ml insulin) After 24 hours from the transfection, the cells were treated with E2 and/or the ERAP1-peptide or 24 hours. The cells were harvested, and the activities of luciferase and Renilla-luciferase were evaluated using Promega dual luciferase reporter assay (Tokyo, Japan). In consideration of the transfection efficiency, all of the data were standardized by the activity of Renilla-luciferase.
Background: In a reporter assay the amount or activity of a reporter protein is the signal.

For experiment [4], the system named is PHB2/REA (Ser39) phosphorylation. The experiment is described as follows: Okadaic acid treatment, immunoblotting of PHB2/REA phosphorylation, MCF-7. The format is cell-based, human. The protocol:
FIG. 31-2 is a diagram illustrating that phosphorylation of ERAP1 by PKA and PKB regulates phosphorylation of PHB2/REA (S39) through the PP1α activity. […] (S39) is caused. MCF-7 cells suppressed for expression of PKA by siRNA method, were stimulated with 10 nM E2 for 24 hours. In addition, MCF-7 cells were treated with H-89 for 30 minutes and washed with PBS. Then, immediately, the cells were stimulated with 10 nM E2 for 24 hours. […] Then, immediately, the cells were stimulated with 10 nM E2 for 24 hours. […] MCF-7 cells suppressed for expression of PKCα by siRNA method were treated with 10 μM ERAP1 peptide. Then, immediately, the cells were stimulated with 10 nM E2 for 24 hours. The cells were fractionated into cytoplasm and nuclear fractions by specific gravity centrifugation.

Where no end group is shown, it is not given here.

T1 sequence (Q99623 77-244): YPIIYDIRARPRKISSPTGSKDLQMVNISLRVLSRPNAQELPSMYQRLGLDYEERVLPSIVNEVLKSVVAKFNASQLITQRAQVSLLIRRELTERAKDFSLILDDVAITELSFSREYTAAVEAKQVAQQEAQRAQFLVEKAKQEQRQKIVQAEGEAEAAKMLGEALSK

Turning to “ERAP1-HA-peptide: ERAP1-peptide to which HA tag was added (RRRRRRRRRRRQMLSDLTLQLRQR; also: HA tag added, place not given here)”, in experiment [1], the “direct binding to His-PHB2/REA” value is reported as “directly bound to His-PHB2/REA, depending on the concentration”; the “inhibition of binding of Flag-ERAP1 and His-PHB2/REA” value is listed as “competitively inhibited”. Besides, the “nuclear translocation of PHB2/REA, temporal” value in experiment [2] was “directly bound to PHB2/REA and was nuclear-translocated at the same time”. For the same compound, in experiment [3], the “transcriptional activity of ERα in ERE” value is on record as “suppressed the transcriptional activity of ERα”.

Turning to `C=C1[C@@H](O)[C@@H]2O[C@]3(CC[C@H](/C=C/[C@@H](C)[C@@H]4CC(C)=C[C@@]5(O[C@H](C[C@@](C)(O)C(=O)O)CC[C@H]5O)O4)O3)CC[C@H]2O[C@@H]1[C@@H](O)C[C@H](C)[C@H]1O[C@@]2(CCCCO2)CC[C@H]1C` [okadaic acid], the “E2-dependent PHB2/REA phosphorylation (Ser39)” value in experiment [4] (20 nM of okadaic acid) is “recognized to be recovered”; in experiment [4] (40 μM), “confirmed to decrease”.
